In brackets after ≈: the same amount, converted by molar mass. Read-outs that look alike come from different tables or passages of the source.
Legend:
M. tuberculosis H37Rv [1] = assay: MIC by resazurin reduction microplate assay (REMA); type: cell-based, Mycobacterium tuberculosis
C. diphtheriae DSM 44123 = assay: MIC99 by REMA; type: cell-based, Corynebacterium diphtheriae
C. glutamicum ATCC 13032 = assay: MIC99 by REMA; type: cell-based, Corynebacterium glutamicum
M. abscessus 2005-0524 = assay: MIC99 by REMA; type: cell-based
M. avium ATCC 15769 = assay: MIC99 by REMA; type: cell-based
M. bolletii 1999-0888 = assay: MIC99 by REMA; type: cell-based
M. bovis BCG Pasteur = assay: microbe, parasite or virus in culture; type: cell-based, Mycobacterium bovis BCG
M. bovis BCG BN2 = type: cell-based, Mycobacterium bovis BCG
M. marinum Strain M [2] = assay: MIC99 by REMA; type: cell-based, Mycobacterium marinum
M. massiliense 2005-0484 = assay: MIC99 by REMA; type: cell-based
M. smegmatis mc^2155 = assay: MIC99 by REMA; type: cell-based, Mycobacterium smegmatis
M. smegmatis GM22 = assay: microbe, parasite or virus in culture; type: cell-based; settings: for MIC99: M. smegmatis GM22, overproduces NfnB nitroreductase
M. smegmatis MN47 = type: cell-based; settings: M. smegmatis MN47, DprE1 Cys394Gly
M. smegmatis MN84 = type: cell-based; settings: M. smegmatis MN84, DprE1 Cys394Ser
M. tuberculosis MDR_CHUV = assay: MIC99 by REMA; type: cell-based, Mycobacterium tuberculosis
M. vaccae ATCC 15483 = assay: MIC99 by REMA; type: cell-based
M. tuberculosis H37Rv [3] = assay: Drug susceptibility testing on solid Löwenstein-Jensen medium; type: cell-based; settings: Mycobacterium tuberculosis, H37RV
[4] = tested on: M. tuberculosis clinical isolate 4328; assay: as above; type: cell-based; settings: Mycobacterium tuberculosis
[5] = tested on: M. tuberculosis clinical isolate 6341; assay: as above; type: cell-based; settings: Mycobacterium tuberculosis
[6] = tested on: M. tuberculosis clinical isolate 6374; assay: as above; type: cell-based; settings: Mycobacterium tuberculosis
[7] = tested on: M. tuberculosis clinical isolate 5055; assay: as above; type: cell-based; settings: Mycobacterium tuberculosis
[8] = tested on: M. tuberculosis clinical isolate 5253; assay: as above; type: cell-based; settings: Mycobacterium tuberculosis
[9] = tested on: M. tuberculosis clinical isolate 6412; assay: as above; type: cell-based; settings: Mycobacterium tuberculosis
[10] = tested on: M. tuberculosis clinical isolate 6448; assay: as above; type: cell-based; settings: Mycobacterium tuberculosis
[11] = tested on: M. tuberculosis clinical isolate 6418; assay: as above; type: cell-based; settings: Mycobacterium tuberculosis
[12] = tested on: M. tuberculosis clinical isolate 7384; assay: as above; type: cell-based; settings: Mycobacterium tuberculosis
[13] = target: T1, purified recombinant M. smegmatis NfnB (Mycolicibacterium smegmatis, UniProt A0R6D0); assay: NfnB-mediated nitroreduction followed by LC-MS; type: biochemical
T1 construct: made in house
T1 sequence (A0R6D0 whole entry): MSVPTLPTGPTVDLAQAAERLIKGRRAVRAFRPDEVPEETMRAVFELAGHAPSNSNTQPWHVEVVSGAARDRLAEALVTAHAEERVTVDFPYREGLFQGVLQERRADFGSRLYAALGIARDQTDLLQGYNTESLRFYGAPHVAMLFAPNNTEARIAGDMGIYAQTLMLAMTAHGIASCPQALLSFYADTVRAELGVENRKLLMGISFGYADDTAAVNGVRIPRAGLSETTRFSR

M. tuberculosis DprE1 = M. tuberculosis DprE1 (Mycobacterium tuberculosis, UniProt P9WJF1); assay: DprE1 inhibition, two step peroxidase-coupled assay with Amplex Red; type: biochemical
Sequence of M. tuberculosis DprE1 (P9WJF1 whole entry, looked up): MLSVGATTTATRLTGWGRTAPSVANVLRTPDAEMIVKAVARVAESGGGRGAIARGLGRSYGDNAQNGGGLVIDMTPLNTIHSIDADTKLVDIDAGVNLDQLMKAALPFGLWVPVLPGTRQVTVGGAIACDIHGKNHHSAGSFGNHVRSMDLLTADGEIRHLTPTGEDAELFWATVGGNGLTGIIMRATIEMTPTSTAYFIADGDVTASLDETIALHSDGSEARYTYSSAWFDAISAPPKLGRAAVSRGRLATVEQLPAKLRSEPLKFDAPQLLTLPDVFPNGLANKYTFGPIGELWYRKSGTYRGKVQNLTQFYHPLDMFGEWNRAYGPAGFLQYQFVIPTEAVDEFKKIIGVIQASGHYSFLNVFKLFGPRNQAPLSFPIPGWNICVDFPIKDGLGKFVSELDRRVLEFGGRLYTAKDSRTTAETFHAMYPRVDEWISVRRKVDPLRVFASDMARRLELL

M. marinum strain M [14] = type: in vivo, zebrafish (Danio rerio); settings: zebrafish, in vivo
zebrafish embryos = type: in vivo, zebrafish (Danio rerio); settings: zebrafish, in vivo
Experimental: On examination of infected zebrafish embryos treated with BTZ043 it was observed that the compound affected embryo development (Fig 6A–G) especially at concentrations above 25 nM. […] These defects were also observed when uninfected embryos were exposed to BTZ043.
Figure 6 Effect of BTZ043 on M. marinum infected zebrafish embryo development. A–D M. marinum infected zebrafish embryos were treated with BTZ043 for 5 days at the concentrations indicated and photographed using a Leica DFC420C camera. The M strain was used for infection. E–F Images of the notochord from untreated and treated zebrafish, arrows indicate developmental abnormalities. G Analysis of zebrafish embryos displaying developmental abnormalities treated with BTZ043 (BTZ) or PBTZ169 (PBTZ) at the concentrations indicated.

M. tuberculosis H37Rv [15] = type: in vivo, BALB/c mice; settings: mouse, in vivo
in vivo = settings: mouse, in vivo
Experimental: Table S5. Principal pharmacokinetic properties1
1 See Figure S5 for primary data.
Compound levels were measured in serum from individual female mice (3/time point) that had received a single dose of 25 mg/kg. Maximum concentration (Cmax); area under the curve (AUC); apparent clearance.
Comparative pharmacokinetic analysis. After receiving a single dose
(25 mg/kg) of PBTZ169 or BTZ043 by gavage, groups of three female mice were sacrificed at the times indicated, blood was obtained by cardiac puncture and the drug levels in serum determined by LC-MS/MS technique (limit of quantification 10 μg/L).

M. tuberculosis H37Rv [16] = assay: In vitro combination studies, REMA checkerboard; type: cell-based
[17] = mouse
[18] = human
in vitro [19] = settings: mouse, microsomes
in vitro [20] = settings: human, microsomes
M. marinum strain E11 = assay: Zebrafish embryo infection model, M. marinum strain E11; settings: 25 nM for 5, 4 or 3 days
Experimental: The number of colony forming units (CFU) per embryo was determined and compared to the level of fluorescence.
Zebrafish embryos were infected with either M. marinum strain M (A, B) or E11 (C, D). […] The bacterial burden was assessed by fluorescence microscopy and customized software to quantify the number of fluorescent pixels (A and C), and by enumeration of the CFU in lysed embryos (B and D), immediately after imaging was performed. In B and D, each data point represents the mean number of CFU per embryo of 3 embryo extracts plated, the bars indicate means and s.e.m. after log transformation. […]
Volumes of 1 nl of bacterial suspension, containing 50-200 CFU were injected into the caudal vein of embryonic zebrafish at approximately 28 h post fertilization. At 5 days post infection, embryos were monitored using fluorescence microscopy (Leica MZ16FA). Brightfield and fluorescent images were generated with a Leica DFC420C camera and subsequently fluorescent images were analyzed with customized software to quantify infection levels.
Twelve infected embryos were incubated at 28°C in petri dishes of 4 cm diameter containing 4 ml sterilized egg water (60 μg/ml instant ocean sea salts) with 0.003% 1-phenyl-2-thiourea (Sigma) to prevent melanization. All drug treatment experiments were performed in egg water containing 1% DMSO and analyzed at 5 days post infection (dpi). […]

[21] = Mycobacterium tuberculosis, H37RV

For moxifloxicin [MXF], the MIC99 (M. tuberculosis H37Rv [1]) was 0.03 µg/mL, the MIC99 (C. diphtheriae DSM 44123) was 0.02 µg/mL and the MIC99 (C. glutamicum ATCC 13032) was 0.31 µg/mL. It also gave an MIC99 (M. abscessus 2005-0524) of 0.78 µg/mL, an MIC99 (M. avium ATCC 15769) of 0.47 µg/mL and an MIC99 (M. bolletii 1999-0888) of 0.94 µg/mL. It also gave an MIC99 (M. bovis BCG Pasteur) of 0.02 µg/mL, an MIC99 (M. bovis BCG BN2) of 0.03 µg/mL and an MIC99 (M. marinum Strain M [2]) of 0.1 µg/mL. It also gave an MIC99 (M. massiliense 2005-0484) of 0.96 µg/mL, an MIC99 (M. smegmatis mc^2155) of 0.06 µg/mL and an MIC99 (M. smegmatis GM22) of 0.06 µg/mL. It also gave an MIC99 (M. smegmatis MN47) of 0.06 µg/mL, an MIC99 (M. smegmatis MN84) of 0.06 µg/mL and an MIC99 (M. tuberculosis MDR_CHUV) of 0.03 µg/mL. The MIC99 (M. vaccae ATCC 15483) was 0.63 µg/mL.

For `O=c1nc(N2CCN(CC3CCCCC3)CC2)sc2c([N+](=O)[O-])cc(C(F)(F)F)cc12` [PBTZ169], the MIC (M. tuberculosis H37Rv [1]; [21]) was at most 0.00019 µg/mL, the MIC99 (M. tuberculosis H37Rv [1]; [21]) was 0.0003 µg/mL (≈ 0.000657 µM) and the MIC (M. tuberculosis H37Rv [1]; Mycobacterium tuberculosis, H37RV, read-out: MIC M. tuberculosis) was at most 0.00019 µg/mL. It also gave an MIC99 (C. diphtheriae DSM 44123; Corynebacterium diphtheriae, DSM44123) of 0.003 µg/mL (≈ 0.00657 µM), an MIC99 (C. glutamicum ATCC 13032; Corynebacterium glutamicum, ATCC13032) of 0.013 µg/mL (≈ 0.0285 µM) and an MIC99 (M. abscessus 2005-0524; Mycobacteroides abscessus, 20050524) of over 100 µg/mL. For the same molecule, the MIC99 (M. avium ATCC 15769; Mycobacterium avium, ATCC15769) was over 100 µg/mL, the MIC99 (M. bolletii 1999-0888; Mycobacteroides abscessus, 19990888) was over 100 µg/mL and the MIC99 (M. bovis BCG Pasteur; Mycobacterium tuberculosis variant bovis BCG, BCG) was 0.0006 µg/mL (≈ 0.00131 µM). The MIC99 (M. bovis BCG BN2) was over 100 µg/mL, the “fold increased resistance conferred by the Cys387Ser mutation in DprE1” value (M. bovis BCG BN2) was > 10 000 fold and the MIC99 (M. marinum Strain M [2]; Mycobacterium marinum) was 0.0003 µg/mL (≈ 0.000657 µM). For the same molecule, the MIC99 (M. massiliense 2005-0484; Mycobacteroides abscessus, 20050484) was over 100 µg/mL, the MIC99 (M. smegmatis mc^2155; Mycolicibacterium smegmatis, MC^2155) was 0.0007 µg/mL (≈ 0.00153 µM) and the MIC (M. smegmatis GM22; Mycolicibacterium smegmatis, GM22, read-out: MIC for GM22) was 0.005 µg/mL (≈ 0.011 µM). For the same molecule, the MIC99 (M. smegmatis GM22; Mycolicibacterium smegmatis, read-out: MIC99) was 0.003 µg/mL (≈ 0.00657 µM), the MIC99 (M. tuberculosis MDR_CHUV; Mycobacterium tuberculosis) was 0.0004 µg/mL (≈ 0.000876 µM) and the MIC99 (M. vaccae ATCC 15483; Mycolicibacterium vaccae, ATCC15483) was over 100 µg/mL. For the same molecule, the MIC (M. tuberculosis H37Rv [3]) was 0.031 µg/mL (≈ 0.0679 µM), the MIC [4] was 0.063 µg/mL (≈ 0.138 µM) and the MIC [5] was 0.031 µg/mL (≈ 0.0679 µM). It also gave an MIC [6] of 0.063 µg/mL (≈ 0.138 µM), an MIC [7] of 0.063 µg/mL (≈ 0.138 µM) and an MIC [8] of 0.063 µg/mL (≈ 0.138 µM). It also gave an MIC [9] of 0.031 µg/mL (≈ 0.0679 µM), an MIC [10] of 0.063 µg/mL (≈ 0.138 µM) and an MIC [11] of 0.063 µg/mL (≈ 0.138 µM). The MIC [12] was 0.063 µg/mL (≈ 0.138 µM), the “NfnB-mediated reduction, species found by LC-MS” value [13] was “the major species found in the LC-MS analysis was the original nitro form” and the “concentration giving full inhibition of DprE1” value (M. tuberculosis DprE1) was 5 µM. For the same molecule, the “bacterial burden in infected zebrafish embryos (fluorescence)” value (M. marinum strain M [14]) was “almost no bacteria were present”, the “decrease in number of CFU per embryo” value (M. marinum strain M [14]) was “about 3 log units” and the “effect on the infection in zebrafish embryos” value (M. marinum strain M [14]) was “no significant effect”. For the same molecule, the “developmental defects in zebrafish embryos (in words)” value (zebrafish embryos) was “no developmental defects were seen”, the “activity in dose escalation study (in words)” value (M. tuberculosis H37Rv [15]) was “active at all the concentrations tested” and the “reduction of CFU in the lungs in comparison to BTZ043 at the same dose” value (M. tuberculosis H37Rv [15]) was over 0.5 log. The “reduction of bacterial burden in the spleens, fold more than BTZ043” value (M. tuberculosis H37Rv [15]) was 10 fold, the “time the serum level remains well above MIC” value (in vivo; female) was over 21 h and the Cmax (in vivo; female, po, 25 mg/kg) was 1850 ng/mL. The half-life (in vivo; female, po, 25 mg/kg) was 1.85 h, the k el (in vivo; female, po, 25 mg/kg) was 0.000104 s⁻¹ and the AUC (in vivo; po, 25 mg/kg) was 193487 µg·min/L. The “ΣFIC (sum of the fractional inhibitory concentrations)” value (M. tuberculosis H37Rv [16]) was 0.5, the selectivity index (HepG2 human cell line; HepG2 cytotoxicity relative to MIC) was > 10 000 and the TD99 (HepG2 human cell line; human) was over 200 µg/mL. For the same molecule, the “clearance on incubation with microsomes (in words)” value [17] was “medium clearance values”, the “clearance on incubation with microsomes (in words)” value [18] was “medium clearance values” and the microsomal CLint (in vitro [19]) was 24.3 µL/min/mg. For the same molecule, the microsomal CLint (in vitro [20]) was 24.8 µL/min/mg and the “decrease in number of CFU per embryo” value (M. marinum strain E11) was about 2 log units.
